According to patent publication US9416144B2, “Benzoxazine oxazolidinone compound, preparation method and application thereof” (priority 2012, dated 2016):
Converted amounts (≈) assume the structure as drawn.

How the values were obtained:
[1] = system: Staphylococcus aureus sensitive strains (5 strains); experiment: In vitro antibacterial activity, MIC by agar double dilution method; type: cell-based; conditions: clinical isolates
Excerpt: (§1) Experimental method: The agar double dilution method (Antimicrob. Agents and Chemother, 40, 1996, 720-726) was used to determine the minimum inhibitory concentration (MIC) of the series of compounds of the invention and the positive control drug linezolid for the test strains. The multipoint inoculation system (Denley A400) was employed to inoculate the bacteria on the agar plate surface with different concentrations of drugs; inoculation amount on each point was about 10^6 CFU/mL. The plates were incubated at 35° C. for 16 hrs before the results were observed. The lowest drug concentration contained in the Petri dish without bacterial growth was used as the minimum inhibitory concentration (MIC value) of the drug fir that strain.
(§2) Test strains: All the test strains were clinically isolated pathogens which were collected from the Nanjing region, and they were re-identified by routine methods before use. 31 strains of the clinically isolated pathogens were chosen, including 6 strains of Enterococcus, 5 Staphylococcus aureus sensitive strains; 5 Staphylococcus epidermidis sensitive strains; 6 Staphylococcus aureus resistant strains; 5 Staphylococcus epidermidis resistant strains; and 4 Streptococcus pneumoniae resistant strains.
(§3) Compounds to be tested were first added 2 ml of DMSO to help them fully dissolved, then added sterile double distilled water to the desired concentration; to all the Petri dish with added drug liquid were added 20 mL MIT medium which was heat-melted to be liquid-like, to make the final drug concentration in the Petri dish to be 64, 32, 16, 8, 4, 2, 1, 0.5, 0.25, 0.125, 0.0625, and 0.031 μg/mL.
(§4) The positive control group was LZ (linezolid, brand name Zyvox, approved by the FDA in 2000 to be firstly sold in the United States, which is the first and also the only one of oxazolidinone antibacterial drugs allowed to enter clinical application).

[2] = system: Staphylococcus epidermidis resistant strains (5 strains); experiment: as above; type: cell-based; conditions: clinical isolates
Excerpt: as §1, §2, §3, §4

[3] = system: Streptococcus pneumoniae resistant strains (4 strains); experiment: as above; type: cell-based; conditions: clinical isolates
Excerpt: as §1, §2, §3, §4

Enterococcus (6 strains) = experiment: as above; type: cell-based; conditions: clinical isolates, 35° C. 16 hrs
Excerpt: as §1, §2, §3, §4

[4] = system: Staphylococcus aureus resistant strains (6 strains); experiment: as above; type: cell-based; conditions: clinical isolates
Excerpt: as §1, §2, §3, §4

[5] = system: Staphylococcus epidermidis sensitive strains (5 strains); experiment: as above; type: cell-based; conditions: clinical isolates
Excerpt: as §1, §2, §3, §4

SMILES	melting point	MIC [1]	MIC [2]	MIC [3]	MIC (Enterococcus (6 strains))	MIC [4]	MIC [5]
Cc1cc(C#N)ncc1-c1ccc2c(c1)OC[C@H]1[C@H](CO)OC(=O)N21 [Compound 21, 5-((3R,3aS)-3-(hydroxylmethyl)-1-oxo-1,3,3a,4-tetrahydrobenzo[b]oxazolo[3,4-d][1,4]oxazin-7-yl)-4-methylpicolinonitrile]	238 to 240 °C	0.25 to 0.5 µg/mL (≈ 0.741 to 1.48 µM)	0.25 to 1 µg/mL (≈ 0.741 to 2.96 µM)	1 to 2 µg/mL (≈ 2.96 to 5.93 µM)	4 to 8 µg/mL (≈ 11.9 to 23.7 µM)	0.5 to 1 µg/mL (≈ 1.48 to 2.96 µM)	0.25 to 0.5 µg/mL (≈ 0.741 to 1.48 µM)
Cc1cc(N2CCOC2=O)ncc1-c1ccc2c(c1)OC[C@H]1[C@H](CO)OC(=O)N21 [Compound 22, (3R,3aS)-3-(hydroxylmethyl)-7-(4-methyl-6-(2-oxooxazolidin-3-yl)pyridin-3-yl)-3a,4-dihydrobenzo[b]oxazolo[3,4-d][1,4]oxazin-1(3H)-one]	245 to 246 °C	0.5 to 1 µg/mL (≈ 1.26 to 2.52 µM)	1 µg/mL (≈ 2.52 µM)	2 µg/mL (≈ 5.03 µM)	4 to 16 µg/mL (≈ 10.1 to 40.3 µM)	0.5 to 1 µg/mL (≈ 1.26 to 2.52 µM)	0.5 to 1 µg/mL (≈ 1.26 to 2.52 µM)
CN1CCC[C@H]2CN(c3ccc(-c4ccc5c(c4)OC[C@H]4[C@H](CO)OC(=O)N54)cn3)C[C@H]21 [Compound 23, (3R,3aS)-3-(hydroxylmethyl)-7-(6-((4aS,7aS)-1-methylhexaydro-1H-pyrrolo[3,4-b]pyridin-6(2H)-yl)pyridin-3-yl)-3a,4-dihydrobenzo[b]oxazolo[3,4-d][1,4]oxazin-1(3H)-one]	169 to 171 °C	8 µg/mL (≈ 18.3 µM)	8 to 16 µg/mL (≈ 18.3 to 36.7 µM)	16 µg/mL (≈ 36.7 µM)	16 µg/mL (≈ 36.7 µM)	8 µg/mL (≈ 18.3 µM)	4 to 8 µg/mL (≈ 9.16 to 18.3 µM)
O=C1O[C@@H](CO)[C@@H]2COc3cc(-c4ccc(N5C[C@@H]6CCCN[C@@H]6C5)nc4)ccc3N12 [Compound 32, (3R,3aS)-7-(6-((4aS,7aS)-hexahydro-1H-pyrrolo[3,4-b]pyridin-6(2H)-yl)pyridin-3-yl)-3-(hydroxylmethyl)-3a,4-dihydrobenzo[b]oxazolo[3,4-d][1,4]oxazin-1(3H)-one]	210 to 212 °C	4 to 8 µg/mL (≈ 9.47 to 18.9 µM)	4 to 8 µg/mL (≈ 9.47 to 18.9 µM)	8 to 16 µg/mL (≈ 18.9 to 37.9 µM)	16 µg/mL (≈ 37.9 µM)	8 µg/mL (≈ 18.9 µM)	4 to 8 µg/mL (≈ 9.47 to 18.9 µM)
NCC1CN(c2ccc(-c3ccc4c(c3)OC[C@H]3[C@H](CO)OC(=O)N43)cn2)C(=O)O1 (stereo partly drawn) [Compound 33, (3R,3aS)-7-(6-(5-(aminomethyl)-2-oxooxazolidin-3-yl)pyridin-3-yl)-3-(hydroxylmethyl)-3a,4-dihydrobenzo[b]oxazolo[3,4-d][1,4]oxazin-1(3H)-one]	–	1 to 2 µg/mL (≈ 2.42 to 4.85 µM)	2 µg/mL (≈ 4.85 µM)	2 µg/mL (≈ 4.85 µM)	1 to 2 µg/mL (≈ 2.42 to 4.85 µM)	1 to 2 µg/mL (≈ 2.42 to 4.85 µM)	0.5 to 1 µg/mL (≈ 1.21 to 2.42 µM)
